Test results: article PMC9025901, “New Genetic Bomb Trigger: Design, Synthesis, Molecular Dynamics Simulation, and Biological Evaluation of Novel BIBR1532-Related Analogs Targeting Telomerase against Non-Small Cell Lung Cancer” (Pharmaceuticals, 2022)

Experiments:
Test in all cases: NCI-60 in vitro anticancer screening (SRB)
HOP-62 = details: HOP-62, Lung cancer (NSCLC); 10 µM, 48 h
Description: (§1) The cancer screening panel’s human tumor 60 cell lines were cultured in the RPMI 1640 medium with (5%) fetal bovine serum and (2 mM) L-glutamine. For a screening experiment, cells were injected onto 96-well microtiter plates (100 µL), with plating densities varying from 5 to 40 × 10^3 cells per well, depending on different cell lines’ doubling times. Before introducing experimental drugs, the microtiter plates were incubated overnight at 37 °C, 95% air, 5% CO2, and 100% relative humidity after cell injection. TCA was employed to keep each cell line in place overnight, resembling a computation of the cell population for every cell line at the time of the addition of the drug. The experimental drugs were chilled after solubilization in DMSO at 400 times the final maximum test concentration. At the moment of the addition of the drug, the aliquot of the frozen concentrate was thawed and diluted to twice the required final maximum concentration with the complete medium containing (50 µg/mL) gentamicin. […] The bound dye was then solubilized with a (10 mM) trizma base, and absorbance was calculated at 515 nm on an automatic reader. […] The % growth of treated cells was established using seven absorbance measurements and compared to untreated control cells [57].

SF-539 = details: SF-539, CNS cancer; 10 µM, 48 h
Description: as §1

HCC-2998 = details: HCC-2998, Colon cancer; 10 µM, 48 h
Description: as §1

UACC-257 = details: UACC-257, Melanoma; 10 µM, 48 h
Description: as §1

HOP-92 = details: HOP-92, Lung cancer (NSCLC); 10 µM, 48 h
Description: as §1

MCF7 = details: MCF7, Breast cancer; 10 µM, 48 h
Description: (§2) The cancer screening panel’s human tumor 60 cell lines were cultured in the RPMI 1640 medium with (5%) fetal bovine serum and (2 mM) L-glutamine. For a screening experiment, cells were injected onto 96-well microtiter plates (100 µL), with plating densities varying from 5 to 40 × 10^3 cells per well, depending on different cell lines’ doubling times. Before introducing experimental drugs, the microtiter plates were incubated overnight at 37 °C, 95% air, 5% CO2, and 100% relative humidity after cell injection. TCA was employed to keep each cell line in place overnight, resembling a computation of the cell population for every cell line at the time of the addition of the drug. The experimental drugs were chilled after solubilization in DMSO at 400 times the final maximum test concentration. At the moment of the addition of the drug, the aliquot of the frozen concentrate was thawed and diluted to twice the required final maximum concentration with the complete medium containing (50 µg/mL) gentamicin. The required final concentration of the drug (10 µM) was reached by adding 100 µL aliquots of these definite dilutions of the drug to suitable microtiter wells previously holding a medium of 100 µL. […] The bound dye was then solubilized with a (10 mM) trizma base, and absorbance was calculated at 515 nm on an automatic reader. […]

MOLT-4 = details: MOLT-4, Leukemia; 10 µM, 48 h
Description: as §1

NCI-H322M = details: Lung cancer (NSCLC), 10 µM, 48 h
Description: as §1

SF-295 = details: SF-295, CNS cancer; 10 µM, 48 h
Description: as §1

A498 = details: A498, Renal cancer; 10 µM, 48 h
Description: as §2

HCT-15 = details: HCT-15, Colon cancer; 10 µM, 48 h
Description: as §1

SK-OV-3 = details: SK-OV-3, Ovarian cancer; 10 µM, 48 h
Description: as §1

ACHN = details: Renal cancer, 10 µM, 48 h
Description: as §2

NCI-H226 = details: NCI-H226, Lung cancer (NSCLC); 10 µM, 48 h
Description: as §1

NCI-H460 = details: NCI-H460, Lung cancer (NSCLC); 10 µM, 48 h
Description: as §1

HL-60(TB) = type: cell-based, human; details: Leukemia, 10 µM, 48 h
MALME-3M = details: Melanoma, 10 µM, 48 h
Description: as §1

M14 = details: M14, Melanoma; 10 µM, 48 h
Description: as §2

MDA-MB-435 = details: MDA-MB-435, Melanoma; 10 µM, 48 h
Description: as §2

LOX IMVI = details: Melanoma, 10 µM, 48 h
Description: as §1

OVCAR-3 = details: OVCAR-3, Ovarian cancer; 10 µM, 48 h
Description: as §1

SR = details: Leukemia, 10 µM, 48 h
Description: as §1

COLO 205 = details: COLO 205, Colon cancer; 10 µM, 48 h
Description: as §1

RPMI-8226 = details: RPMI-8226, Leukemia; 10 µM, 48 h
Description: as §1

EKVX = details: Lung cancer (NSCLC), 10 µM, 48 h
Description: as §1

IGROV1 = details: IGROV1, Ovarian cancer; 10 µM, 48 h
Description: as §1

HCT-116 = details: HCT-116, Colon cancer; 10 µM, 48 h
Description: as §1

U251 = details: U251, CNS cancer; 10 µM, 48 h
Description: as §1

MDA-MB-468 = details: MDA-MB-468, Breast cancer; 10 µM, 48 h
Description: as §1

Compound: N#C/C(=C\c1ccc2ccccc2c1)C(=O)Nc1sc2c(c1C#N)CCCC2 [Compound 36b, (2E)-2-Cyano-N-(3-cyano-4,5,6,7-tetrahydro-1-benzothiophen-2-yl)-3-(naphthalen-2-yl)prop-2-enamide]
- Growth Percent (HOP-62): 98.36%
- Growth Percent (SF-539): 98.71%
- Growth Percent (HCC-2998): 114.98%
- Growth Percent (UACC-257): 102.32%
- Growth Percent (HOP-92): 90.75%
- Growth Percent (MCF7): 92.41%
- Growth Percent (MOLT-4): 100.37%
- Growth Percent (NCI-H322M): 98.58%
- Growth Percent (SF-295): 95.53%
- Growth Percent (A498): 99.38%
- Growth Percent (HCT-15): 99.95%
- Growth Percent (SK-OV-3): 89.18%
- Growth Percent (ACHN): 103.29%
- Growth Percent (NCI-H226): 89.78%
- Growth Percent (NCI-H460): 102.88%
- Growth Percent (HL-60(TB)): 99.47%
- Growth Percent (MALME-3M): 109.97%
- Growth Percent (M14): 94.57%
- Growth Percent (MDA-MB-435): 101.92%
- Growth Percent (LOX IMVI): 102.88%
- Growth Percent (OVCAR-3): 98.78%
- Growth Percent (SR): 95.72%
- Growth Percent (COLO 205): 103.10%
- Growth Percent (RPMI-8226): 99.85%
- Growth Percent (EKVX): 92.47%
- Growth Percent (IGROV1): 103.06%
- Growth Percent (HCT-116): 100.18%
- Growth Percent (U251): 98.73%
- Growth Percent (MDA-MB-468): 90.36%
